Eleven compounds from ChEMBL document CHEMBL1201862, “PubChem BioAssay data set” (2004) can be followed below.

SMILES strings stand for the structures.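 Step 1: Grow cells in 96-well plates. Step 2: Expose to compound for 48 hours at 5 concentrations. Step 3: Interpolate endpoints linearly; if unreached, use highest concentration. GI50 = concentration required for 50% inhibition of growth.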 Calls of active or inactive are those of the source. No stated cut-off is given here; in the data, active = GI50 up to about 1.1 µM and inactive = higher.

Test systems include A498; ACHN; COLO 205; DU-145; HCC 2998; HCT-15; HL-60; HOP-62; HT-29; IGROV-1; MCF7; NCI/ADR-RES; SK-MEL-28; SK-MEL-2; SK-OV-3; SNB-19; SW-620; UO-31; A549; Malme-3M.
Holding throughout (experiment): inhibition of tumour cell growth, NCI panel, 48 h

As to `Cn1c(=O)c2c(nc3sc4ncccc4c(=O)n32)n(C)c1=O`, the GI50 in the assay with A498 is > 100 µM (inactive); in the assay with ACHN it was > 100 µM (inactive); with COLO 205 it was > 100 µM (inactive); with DU-145, > 100 µM (inactive); in the assay with HCC 2998, > 100 µM (inactive); with HCT-15 it was above 100 µM. Besides, the GI50 with HL-60, in the assay on HOP-62, in the assay on HT-29, in the assay on IGROV-1, with MCF7 and in the assay with NCI/ADR-RES was > 100 µM (inactive) each time. Moreover, the GI50 in the assay with SK-MEL-28 is > 100 µM (inactive); in the assay with SK-MEL-2, > 100 µM (inactive); with SK-OV-3 it was > 100 µM (inactive); with SNB-19 it was > 100 µM (inactive); in the assay on SW-620, > 100 µM (inactive); with UO-31 it was 81.1 µM (inactive).
Take `n1onc2c1NC1Nc3nonc3NC1N2` (configuration not stated): the GI50 with A498, in the assay with A549, with ACHN, with COLO 205, in the assay with DU-145 and in the assay on HCC 2998 was > 100 µM (inactive) in each case. Besides, the GI50 in the assay with HCT-15 is above 100 µM; in the assay on HL-60, > 100 µM (inactive); in the assay with HOP-62 it was > 100 µM (inactive); with HT-29, > 100 µM (inactive); in the assay on IGROV-1, > 100 µM (inactive); with MCF7 it was > 100 µM (inactive). Also, the GI50 in the assay on NCI/ADR-RES was > 100 µM (inactive); in the assay with SK-MEL-28, > 100 µM (inactive); with SK-OV-3, > 100 µM (inactive); with SNB-19, 27.7 µM (inactive); in the assay on SW-620, > 100 µM (inactive); in the assay with UO-31, > 100 µM (inactive).
As for `CCOC(=O)CCCc1cc(O)c2c(C)c3[nH]c4ccc(Cl)cc4c3c(C)c2n1`, the GI50 with A498 is 15.3 µM (inactive); with A549, 19.6 µM (inactive); in the assay with ACHN it was 24.3 µM (inactive); in the assay on COLO 205, 41.8 µM (inactive); in the assay on DU-145, 23.8 µM (inactive); with HCC 2998 it was 44.4 µM (inactive). For the same compound, the GI50 in the assay on HCT-15 is 31.5 µM; in the assay on HL-60, 24 µM (inactive); with HOP-62, 20.7 µM (inactive); with HT-29 it was 23.7 µM (inactive); in the assay on IGROV-1 it was 30.2 µM (inactive); with MCF7, 15.9 µM (inactive). In addition, the GI50 was 24 µM (inactive) with Malme-3M; 23.4 µM (inactive) in the assay on NCI/ADR-RES; 28.3 µM (inactive) in the assay on SK-MEL-28; 26.9 µM (inactive) in the assay on SK-MEL-2; 23.7 µM (inactive) with SNB-19; 32.2 µM (inactive) in the assay with SW-620. Also, the GI50 in the assay on UO-31 was 20.1 µM (inactive).
As to `Oc1cc(Cl)cc2cc(Cl)cnc12`, the GI50 in the assay on A498 was 12.5 µM (inactive); in the assay with A549 it was 3.22 µM (inactive); in the assay on ACHN, 2.44 µM (inactive); with COLO 205, 31 µM (inactive); in the assay with DU-145, 6.47 µM (inactive); in the assay with HCC 2998, 25.1 µM (inactive). For the same compound, the GI50 in the assay on HCT-15 was 0.598 µM; in the assay on HL-60, 0.288 µM (active); in the assay on HOP-62 it was 7.41 µM (inactive); in the assay on HT-29, 22.8 µM (inactive); in the assay on IGROV-1 it was 0.596 µM (active); in the assay with MCF7, 3.4 µM (inactive). The GI50 was 2.25 µM (inactive) in the assay on Malme-3M; 1.49 µM (inactive) in the assay on NCI/ADR-RES; 5.12 µM (inactive) in the assay on SK-MEL-28; 30.8 µM (inactive) in the assay with SK-OV-3; 4 µM (inactive) in the assay with SNB-19; 3.15 µM (inactive) with SW-620. Also, the GI50 with UO-31 is 3.21 µM (inactive).
For `Cn1c(-c2ccccc2)cc(-c2ccsc2)c1-c1ccsc1`, the GI50 in the assay with A498, in the assay on A549, in the assay on ACHN, with COLO 205, with DU-145 and in the assay on HCC 2998 was > 100 µM (inactive) each time. The GI50 in the assay with HCT-15 is above 100 µM; in the assay on HL-60 it was 53.2 µM (inactive); in the assay on HOP-62, 49.5 µM (inactive); with HT-29, 67.3 µM (inactive); in the assay with IGROV-1, > 100 µM (inactive); in the assay with MCF7, > 100 µM (inactive). The GI50 with NCI/ADR-RES was > 100 µM (inactive); in the assay with SK-MEL-28 it was > 100 µM (inactive); with SK-MEL-2, > 100 µM (inactive); with SK-OV-3 it was 95.7 µM (inactive); with SNB-19, 17.2 µM (inactive); with SW-620 it was > 100 µM (inactive). Also, the GI50 in the assay with UO-31 was > 100 µM (inactive).
Regarding `CS(=O)(=O)Nc1ccc2c(c1)oc(=O)c1ccccc12`, the GI50 in the assay on A498, in the assay on A549, in the assay with ACHN, in the assay on COLO 205, in the assay on DU-145 and with HCC 2998 was > 100 µM (inactive) in each case. The GI50 is above 100 µM in the assay on HCT-15; > 100 µM (inactive) in the assay on HL-60; > 100 µM (inactive) with HOP-62; > 100 µM (inactive) in the assay on HT-29; > 100 µM (inactive) in the assay on IGROV-1; > 100 µM (inactive) with MCF7. Besides, the GI50 with Malme-3M, with NCI/ADR-RES, in the assay with SK-MEL-28, with SK-MEL-2, in the assay on SNB-19 and in the assay on SW-620 was > 100 µM (inactive) each time. The GI50 in the assay on UO-31 is 38.5 µM (inactive).
As for `COC(=O)C12CCC(C(=O)OC)(Cc3c(c4ccccc4n3S(=O)(=O)c3ccccc3)C1)C2=O` (configuration not stated), the GI50 was > 100 µM (inactive) with A498; > 46 µM (inactive) in the assay on A549; > 64.1 µM (inactive) in the assay on ACHN; > 100 µM (inactive) in the assay with COLO 205; > 100 µM (inactive) with DU-145; > 76.9 µM (inactive) in the assay with HCC 2998. The GI50 is above 100 µM with HCT-15; > 100 µM (inactive) in the assay with HOP-62; > 46.3 µM (inactive) in the assay with HT-29; > 26.7 µM (inactive) in the assay with IGROV-1; 63.8 µM (inactive) with MCF7; 36.1 µM (inactive) with Malme-3M. The GI50 was 16.7 µM (inactive) with NCI/ADR-RES; > 100 µM (inactive) in the assay on SK-MEL-28; > 100 µM (inactive) in the assay on SK-MEL-2; > 70.8 µM (inactive) in the assay on SK-OV-3; > 56.4 µM (inactive) with SNB-19; > 100 µM (inactive) in the assay with SW-620. The GI50 with UO-31 is > 100 µM (inactive).
In the case of `O=C(NCCCCCCCCNC(=O)Nc1cccc2ccccc12)Nc1cccc2ccccc12`, the GI50 in the assay on A498 was 11 µM (inactive); in the assay on A549, 35.1 µM (inactive); with ACHN it was 85.9 µM (inactive); in the assay on COLO 205 it was 35.6 µM (inactive); with DU-145 it was > 100 µM (inactive); in the assay with HCC 2998, 30.1 µM (inactive). In addition, the GI50 was above 100 µM in the assay with HCT-15; 33.4 µM (inactive) with HL-60; 12.8 µM (inactive) with HOP-62; > 100 µM (inactive) in the assay with HT-29; 50.6 µM (inactive) in the assay with IGROV-1; 13.8 µM (inactive) with MCF7. The GI50 is > 100 µM (inactive) in the assay on Malme-3M; 46.7 µM (inactive) with NCI/ADR-RES; 57.7 µM (inactive) in the assay on SK-MEL-28; 83.9 µM (inactive) with SK-MEL-2; 32.2 µM (inactive) with SNB-19; 9.66 µM (inactive) in the assay with SW-620. Further, the GI50 in the assay with UO-31 is 21.4 µM (inactive).
With `NCC(=O)NC1(c2cc3ccccc3s2)CCCCC1`, the GI50 in the assay with A498 is 31 µM (inactive); in the assay with A549 it was 74.1 µM (inactive); in the assay with ACHN it was 23.3 µM (inactive); with COLO 205 it was 17.9 µM (inactive); with DU-145, > 100 µM (inactive); in the assay on HCC 2998, 15.6 µM (inactive). Further, the GI50 in the assay on HCT-15 is 61.1 µM; in the assay with HL-60, 18.5 µM (inactive); with HOP-62 it was > 100 µM (inactive); in the assay on HT-29 it was 18.6 µM (inactive); with IGROV-1, 61.1 µM (inactive); in the assay on MCF7, 27.2 µM (inactive). In addition, the GI50 in the assay on Malme-3M is 17.6 µM (inactive); in the assay with NCI/ADR-RES it was 48.5 µM (inactive); in the assay on SK-MEL-28 it was 19 µM (inactive); with SK-OV-3, 67.6 µM (inactive); with SNB-19 it was > 100 µM (inactive); with SW-620 it was 91 µM (inactive). Also, the GI50 in the assay with UO-31 is 45.9 µM (inactive).
On to `Oc1ccc2ccccc2c1CN(Cc1c(O)ccc2ccccc12)C1CCCCC1`, for which the GI50 is 27 µM (inactive) with A498; 19.4 µM (inactive) in the assay with A549; 18.3 µM (inactive) with ACHN; 16.1 µM (inactive) in the assay on COLO 205; 20.3 µM (inactive) in the assay on DU-145; 14.6 µM (inactive) in the assay on HCC 2998. In addition, the GI50 is 20.6 µM in the assay on HCT-15; 29.7 µM (inactive) in the assay with HOP-62; 21.6 µM (inactive) with HT-29; 11.8 µM (inactive) in the assay with IGROV-1; 15.5 µM (inactive) in the assay with MCF7; 15.8 µM (inactive) with Malme-3M. For the same compound, the GI50 with NCI/ADR-RES was 23.5 µM (inactive); in the assay with SK-MEL-28, 22.8 µM (inactive); with SK-MEL-2, 23.3 µM (inactive); in the assay on SK-OV-3, 42 µM (inactive); with SNB-19 it was 28.2 µM (inactive); with SW-620 it was 20.1 µM (inactive). For the same compound, the GI50 with UO-31 was 17.1 µM (inactive).
For the compound `CN(C)CCNC(=O)c1cccc2nc3cccc(F)c3nc12`, the GI50 in the assay on A498 is 1.91 µM (inactive); in the assay with A549 it was 0.53 µM (active); with ACHN, 0.484 µM (active); in the assay with COLO 205 it was 0.317 µM (active); in the assay on DU-145, 2.47 µM (inactive); in the assay with HCC 2998 it was 1.49 µM (inactive). Besides, the GI50 was 1.16 µM in the assay on HCT-15; 1.48 µM (inactive) in the assay on HL-60; 1.97 µM (inactive) in the assay with HOP-62; 0.867 µM (active) in the assay on HT-29; 1.6 µM (inactive) with IGROV-1; 1.48 µM (inactive) with MCF7. Further, the GI50 in the assay on Malme-3M was 2.04 µM (inactive); in the assay on NCI/ADR-RES, 1.39 µM (inactive); with SK-MEL-28, 3.01 µM (inactive); in the assay on SK-MEL-2 it was 2.13 µM (inactive); in the assay on SNB-19 it was 2.21 µM (inactive); in the assay with SW-620, 0.65 µM (active). In addition, the GI50 with UO-31 was 0.883 µM (active).
